Assay results from patent US9592221B2, “Antibacterial agents: aryl myxopyronin derivatives” (priority 2012, dated 2017).

Key:
[1] = tested on: Staphylococcus aureus ATCC 12600; experiment: MIC, spiral gradient endpoint assay, S. aureus ATCC 12600; assay type: cell-based; settings: ATCC12600; Staphylococcus aureus ATCC 12600
[2] = tested on: Mycobacterium tuberculosis H37Rv; experiment: MIC, microplate Alamar Blue assay, M. tuberculosis; assay type: cell-based
Burkholderia mallei CHN7 = experiment: microbe, parasite or virus in culture; assay type: cell-based; settings: Burkholderia mallei, CHN7, read-out: MIC B. mallei CHN7
[3] = tested on: Bacillus anthracis Vollum 1b; experiment: microbe, parasite or virus in culture; assay type: cell-based; settings: Bacillus anthracis, VOLLUM1B, read-out: MIC B. anthracis Vollum-1b
Yersinia pestis C092 = experiment: microbe, parasite or virus in culture; assay type: cell-based; settings: Yersinia pestis, C092, read-out: MIC Y. pestis C092
[4] = tested on: Francisella tularensis SCHU4; experiment: microbe, parasite or virus in culture; assay type: cell-based; settings: Francisella tularensis, SCHU4, read-out: MIC F. tularensis SCHU4
Brucella melitensis 16M = experiment: microbe, parasite or virus in culture; assay type: cell-based; settings: Brucella melitensis, 16M, read-out: MIC B. melitensis 16M
[5] = target: E. coli RNA polymerase σ^70 holoenzyme (Escherichia coli, UniProt P0A8T7+P0A8V2); experiment: Fluorescence-detected RNA polymerase assay, E. coli RNA polymerase; assay type: biochemical; settings: read-out: IC50 E. coli RNAP
[6] = tested on: Acinetobacter baumannii ATCC 19606; experiment: MIC, spiral gradient endpoint assay, A. baumannii; assay type: cell-based; settings: ATCC19606; Acinetobacter baumannii ATCC 19606
[7] = tested on: Escherichia coli D21f2tolC; experiment: MIC, spiral gradient endpoint assay, E. coli D21f2tolC; assay type: cell-based; settings: Escherichia coli, D21F2TOLC, read-out: MIC E. coli D21f2toIC
[8] = tested on: Burkholderia pseudomallei Human/Blood/OH/US/1994; experiment: microbe, parasite or virus in culture; assay type: cell-based; settings: Burkholderia pseudomallei, read-out: MIC B. pseudomallei Human/Blood/OH

E. coli RNA polymerase σ^70 holoenzyme, sequence (P0A8T7 whole entry): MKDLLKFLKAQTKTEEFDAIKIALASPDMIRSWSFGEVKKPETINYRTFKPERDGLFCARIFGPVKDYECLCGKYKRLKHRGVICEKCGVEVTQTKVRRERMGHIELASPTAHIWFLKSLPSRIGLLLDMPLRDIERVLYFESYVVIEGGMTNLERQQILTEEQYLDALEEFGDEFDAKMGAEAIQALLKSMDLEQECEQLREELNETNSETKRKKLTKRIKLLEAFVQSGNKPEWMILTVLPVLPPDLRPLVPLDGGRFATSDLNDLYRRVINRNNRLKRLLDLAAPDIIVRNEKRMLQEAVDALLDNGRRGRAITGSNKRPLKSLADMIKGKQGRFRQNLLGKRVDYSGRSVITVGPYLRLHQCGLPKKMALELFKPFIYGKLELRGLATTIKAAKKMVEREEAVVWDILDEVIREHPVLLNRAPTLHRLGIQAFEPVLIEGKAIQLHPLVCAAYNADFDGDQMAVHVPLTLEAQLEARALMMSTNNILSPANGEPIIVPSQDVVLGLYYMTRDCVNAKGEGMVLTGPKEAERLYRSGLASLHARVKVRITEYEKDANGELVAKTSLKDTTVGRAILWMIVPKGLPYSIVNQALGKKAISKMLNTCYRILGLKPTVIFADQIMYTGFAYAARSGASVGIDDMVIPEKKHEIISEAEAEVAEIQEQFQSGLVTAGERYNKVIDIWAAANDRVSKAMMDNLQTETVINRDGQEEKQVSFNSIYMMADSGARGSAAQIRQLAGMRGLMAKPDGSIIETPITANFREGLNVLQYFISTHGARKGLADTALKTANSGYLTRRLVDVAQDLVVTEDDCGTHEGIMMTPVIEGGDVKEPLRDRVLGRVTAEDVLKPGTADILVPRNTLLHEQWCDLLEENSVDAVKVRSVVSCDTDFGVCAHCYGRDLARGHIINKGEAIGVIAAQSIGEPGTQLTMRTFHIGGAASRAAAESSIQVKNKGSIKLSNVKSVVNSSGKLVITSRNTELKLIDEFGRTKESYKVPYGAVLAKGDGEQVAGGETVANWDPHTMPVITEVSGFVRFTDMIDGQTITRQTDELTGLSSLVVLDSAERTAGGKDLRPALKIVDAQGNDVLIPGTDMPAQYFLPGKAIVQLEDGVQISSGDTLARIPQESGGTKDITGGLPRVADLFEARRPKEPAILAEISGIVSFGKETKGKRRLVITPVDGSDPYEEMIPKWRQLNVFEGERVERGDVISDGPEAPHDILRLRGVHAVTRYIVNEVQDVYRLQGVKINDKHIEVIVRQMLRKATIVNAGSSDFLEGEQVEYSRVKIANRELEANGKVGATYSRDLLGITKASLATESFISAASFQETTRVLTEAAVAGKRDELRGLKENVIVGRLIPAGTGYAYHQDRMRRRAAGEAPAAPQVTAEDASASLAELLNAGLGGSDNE
E. coli RNA polymerase σ^70 holoenzyme, sequence (P0A800 whole entry, further chain): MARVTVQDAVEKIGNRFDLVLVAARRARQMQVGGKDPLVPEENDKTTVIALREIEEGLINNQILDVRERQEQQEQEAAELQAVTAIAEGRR
E. coli RNA polymerase σ^70 holoenzyme, sequence (P0A8V2 whole entry): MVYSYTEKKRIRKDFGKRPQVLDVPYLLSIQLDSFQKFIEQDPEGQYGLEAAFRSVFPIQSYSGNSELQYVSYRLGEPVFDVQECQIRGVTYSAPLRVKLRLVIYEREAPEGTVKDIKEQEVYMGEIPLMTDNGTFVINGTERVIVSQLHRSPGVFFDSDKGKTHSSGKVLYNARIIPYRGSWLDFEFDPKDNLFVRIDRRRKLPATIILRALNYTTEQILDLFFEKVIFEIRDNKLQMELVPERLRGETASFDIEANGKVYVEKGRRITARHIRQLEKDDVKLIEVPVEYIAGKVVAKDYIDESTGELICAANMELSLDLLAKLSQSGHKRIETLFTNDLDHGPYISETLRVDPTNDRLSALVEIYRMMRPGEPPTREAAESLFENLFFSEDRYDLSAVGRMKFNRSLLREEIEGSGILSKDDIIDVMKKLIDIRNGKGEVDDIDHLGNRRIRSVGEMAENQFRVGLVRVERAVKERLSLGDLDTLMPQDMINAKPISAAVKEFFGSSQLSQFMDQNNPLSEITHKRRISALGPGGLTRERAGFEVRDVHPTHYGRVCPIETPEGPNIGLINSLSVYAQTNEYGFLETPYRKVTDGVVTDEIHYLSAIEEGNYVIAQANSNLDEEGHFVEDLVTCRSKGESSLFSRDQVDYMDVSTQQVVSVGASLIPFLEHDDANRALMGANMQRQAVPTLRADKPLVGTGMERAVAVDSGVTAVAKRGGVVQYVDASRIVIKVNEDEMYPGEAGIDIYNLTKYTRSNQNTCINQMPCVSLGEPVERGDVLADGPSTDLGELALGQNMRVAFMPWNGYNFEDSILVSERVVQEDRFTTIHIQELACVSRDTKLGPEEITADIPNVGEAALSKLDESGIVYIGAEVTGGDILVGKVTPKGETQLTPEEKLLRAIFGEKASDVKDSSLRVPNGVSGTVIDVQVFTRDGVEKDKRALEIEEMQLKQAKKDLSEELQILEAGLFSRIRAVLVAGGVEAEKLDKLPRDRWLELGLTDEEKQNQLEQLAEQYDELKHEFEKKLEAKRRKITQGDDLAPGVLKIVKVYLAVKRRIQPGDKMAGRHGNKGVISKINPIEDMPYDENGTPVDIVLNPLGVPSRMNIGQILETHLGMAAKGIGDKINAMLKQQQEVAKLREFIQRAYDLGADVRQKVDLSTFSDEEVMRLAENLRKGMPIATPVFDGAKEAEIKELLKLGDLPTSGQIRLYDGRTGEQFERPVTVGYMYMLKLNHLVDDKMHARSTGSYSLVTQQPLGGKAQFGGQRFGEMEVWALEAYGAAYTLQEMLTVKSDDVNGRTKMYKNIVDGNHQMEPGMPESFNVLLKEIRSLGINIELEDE
E. coli RNA polymerase σ^70 holoenzyme, sequence (P00579 whole entry, further chain): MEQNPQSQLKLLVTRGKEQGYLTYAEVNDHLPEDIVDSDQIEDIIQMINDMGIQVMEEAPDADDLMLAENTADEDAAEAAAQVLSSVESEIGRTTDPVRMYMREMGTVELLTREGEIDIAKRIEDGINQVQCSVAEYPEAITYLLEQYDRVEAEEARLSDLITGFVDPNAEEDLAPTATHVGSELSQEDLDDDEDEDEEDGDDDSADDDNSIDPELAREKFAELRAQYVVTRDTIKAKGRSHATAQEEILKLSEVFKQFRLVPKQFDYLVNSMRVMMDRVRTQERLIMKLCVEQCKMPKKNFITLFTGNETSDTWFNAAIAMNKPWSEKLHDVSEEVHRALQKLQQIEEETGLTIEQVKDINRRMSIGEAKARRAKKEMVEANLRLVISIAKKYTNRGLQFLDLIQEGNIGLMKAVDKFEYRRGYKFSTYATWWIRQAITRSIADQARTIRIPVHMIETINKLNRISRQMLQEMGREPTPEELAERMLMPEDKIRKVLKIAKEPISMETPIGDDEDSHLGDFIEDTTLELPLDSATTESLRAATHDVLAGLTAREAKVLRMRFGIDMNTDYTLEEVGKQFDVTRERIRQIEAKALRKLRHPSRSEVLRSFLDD
E. coli RNA polymerase σ^70 holoenzyme, sequence (P0A7Z4 whole entry, further chain): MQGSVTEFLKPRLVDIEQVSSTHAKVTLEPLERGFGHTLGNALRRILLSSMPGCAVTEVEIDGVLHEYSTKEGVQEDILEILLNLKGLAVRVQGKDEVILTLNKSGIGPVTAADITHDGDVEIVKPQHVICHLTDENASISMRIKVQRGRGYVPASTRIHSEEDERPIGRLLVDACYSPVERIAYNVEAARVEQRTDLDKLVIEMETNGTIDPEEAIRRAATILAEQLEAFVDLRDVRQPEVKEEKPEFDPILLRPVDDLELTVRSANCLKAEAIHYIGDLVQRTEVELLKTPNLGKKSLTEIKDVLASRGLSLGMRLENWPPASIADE

Structure (SMILES)	MIC [1] [µg/mL]	MIC [2] [µg/mL]	MIC (Burkholderia mallei CHN7) [µg/mL]	MIC [3] [µg/mL]	MIC (Yersinia pestis C092) [µg/mL]	MIC [4] [µg/mL]	MIC (Brucella melitensis 16M) [µg/mL]	IC50 [5] [nM]	MIC [6] [µg/mL]	MIC [7] [µg/mL]	MIC [8] [µg/mL]
CCCCOc1cccc(C=C(C)C(=O)c2c(O)cc(C(C)CC/C=C/NC(=O)OC)oc2=O)c1 (mixture of isomers) [APY42, methyl (E)-5-(3-((E/Z)-3-(3-butoxyphenyl)-2-methylacryloyl)-4-hydroxy-2-oxo-2H-pyran-6-yl)hex-1-enylcarbamate]	> 40	30	50	10	> 50	50	6	30	> 40	0.4	50
CCCCOc1ccc(C=C(C)C(=O)c2c(O)cc(C(C)CC/C=C/NC(=O)OC)oc2=O)c(C)c1 (mixture of isomers) [APY129, methyl ((1E)-5-(3-(3-(4-butoxy-2-methylphenyl)-2-methylacryloyl)-4-hydroxy-2-oxo-2H-pyran-6-yl)hex-1-en-1-yl)carbamate]	2	30	50	3	30	> 50	10	50	40	0.3	> 50
CCCCCCc1ccc(C=C(C)C(=O)c2c(O)cc(C(C)CC/C=C/NC(=O)OC)oc2=O)cn1 (mixture of isomers) [APY37, methyl (E)-5-(3-((E/Z)-3-(6-hexylpyridin-3-yl)-2-methylacryloyl)-4-hydroxy-2-oxo-2H-pyran-6-yl)hex-1-enylcarbamate]	> 40	> 50	50	50	> 50	50	10	90	> 40	0.6	> 50
COC(=O)N/C=C/CCC(C)c1cc(O)c(C(=O)C(C)=Cc2ccc(Oc3ccc(C(F)(F)F)cc3)s2)c(=O)o1 (mixture of isomers) [APY119, methyl ((1E)-5-(4-hydroxy-3-(2-methyl-3-(5-(4-(trifluoromethyl)phenoxy)thiophen-2-yl)acryloyl)-2-oxo-2H-pyran-6-yl)hex-1-en-1-yl)carbamate]	2	> 50	3	0.8	3	50	3	6	> 40	0.1	6
COC(=O)N/C=C/CCC(C)c1cc(O)c(C(=O)C(C)=Cc2cnc(CCC(C)C)s2)c(=O)o1 (mixture of isomers) [APY137, methyl ((1E)-5-(4-hydroxy-3-(3-(2-isopentylthiazol-5-yl)-2-methylacryloyl)-2-oxo-2H-pyran-6-yl)hex-1-en-1-yl)carbamate]	1	6	10	3	10	50	6	10	> 40	0.08	30
COC(=O)N/C=C/CCC(C)c1cc(O)c(C(=O)C(C)=Cc2ccc(OCC(F)F)cc2)c(=O)o1 (mixture of isomers) [APY132, methyl ((1E)-5-(3-(3-(4-(2,2-difluoroethoxy)phenyl)-2-methylacryloyl)-4-hydroxy-2-oxo-2H-pyran-6-yl)hex-1-en-1-yl)carbamate]	5	10	> 50	30	> 50	> 50	30	200	> 40	0.7	> 50
CCCOc1ccc2c(c1)cc(C=C(C)C(=O)c1c(O)cc(C(C)CC/C=C/NC(=O)OC)oc1=O)n2C (mixture of isomers) [APY121, methyl ((1E)-5-(4-hydroxy-3-(2-methyl-3-(1-methyl-5-propoxy-1H-indol-2-yl)acryloyl)-2-oxo-2H-pyran-6-yl)hex-1-en-1-yl)carbamate]	> 40	> 50	> 50	> 50	> 50	> 50	> 50	500	> 40	0.8	> 50
COC(=O)N/C=C/CCC(C)c1cc(O)c(C(=O)C(C)=Cc2ccc(OCCC(C)(C)C)cc2)c(=O)o1 (mixture of isomers) [APY48, methyl (E)-5-(3-((E/Z)-3-(4-(3,3-dimethylbutoxy)phenyl)-2-methylacryloyl)-4-hydroxy-2-oxo-2H-pyran-6-yl)hex-1-enylcarbamate]	10	10	50	6	> 50	10	6	900			> 50
COC(=O)N/C=C/CCC(C)c1cc(O)c(C(=O)C(C)=Cc2ccc(OC(C)C)cc2C)c(=O)o1 (mixture of isomers) [APY130, methyl ((1E)-5-(4-hydroxy-3-(3-(4-isopropoxy-2-methylphenyl)-2-methylacryloyl)-2-oxo-2H-pyran-6-yl)hex-1-en-1-yl)carbamate]	3	30	> 50	10	> 50	> 50	> 50	200	> 40	2	> 50
COC(=O)N/C=C/CCC(C)c1cc(O)c(C(=O)C(C)=Cc2ccc(OCC3CCCC3)cc2)c(=O)o1 (mixture of isomers) [APY52]	4	30	50	2		30	3	2000	> 40	0.4	> 50
CCCCCc1ccc(C=C(C)C(=O)c2c(O)cc(C(C)CC/C=C/NC(=O)OC)oc2=O)s1 (mixture of isomers) [APY59, methyl (E)-5-(4-hydroxy-5-((E/Z)-2-methyl-3-(5-pentylthiophen-2-yl)acryloyl)-6-oxo-6H-pyran-2-yl)hex-1-enylcarbamate]	0.3	30	6	2		10	6	10	7	0.2	10
COC(=O)N/C=C/CCC(C)c1cc(O)c(C(=O)C(C)=Cc2ccc(OCC(C)C)cc2)c(=O)o1 (mixture of isomers) [APY53, methyl (E)-5-(4-hydroxy-3-((E/Z)-3-(4-isobutoxyphenyl)-2-methacryloyl)-4-hydroxy-2-oxo-2H-pyran-6-yl)hex-1-enylcarbamate]	2	6	> 50	3		50	10	2000	> 40	0.4	> 50
COC(=O)N/C=C/CCC(C)c1cc(O)c(C(=O)C(C)=Cc2ccc(CCC(F)(F)F)cc2)c(=O)o1 (mixture of isomers) [APY74, methyl (E)-5-(5-((E/Z)-3-(4-(3,3,3-trifluoropropyl)phenyl)-2-methylacryloyl)-4-hydroxy-6-oxo-6H-pyran-2-yl)hex-1-enylcarbamate]	2	10	> 50	10		50	10	40	> 40	0.2	> 50
COC(=O)N/C=C/CCC(C)c1cc(O)c(C(=O)C(C)=Cc2ccc(CCC(C)(C)C)s2)c(=O)o1 (mixture of isomers) [APY56, methyl (E)-5-(4-hydroxy-5-((E/Z)-2-methyl-3-(5-(3,3-dimethylbutyl)thiophen-2-yl)acryloyl)-6-oxo-6H-pyran-2-yl)hex-1-enylcarbamate]	0.7	10	3	0.2		6	3	7	10	0.2	6
COC(=O)N/C=C/CCC(C)c1cc(O)c(C(=O)C(C)=Cc2ccc(OCC(C)(C)C)cc2)c(=O)o1 (mixture of isomers) [APY55, methyl (E)-5-(4-hydroxy-3-((E/Z)-2-methyl-3-(4-(neopentyloxy)phenyl)acryloyl)-2-oxo-2H-pyran-6-yl)hex-1-enylcarbamate]	10	10	50	2		30	30	40	> 40	0.7	> 50
